Experimental data reported in US11813306B2, “Cyclic tetramer compounds as proprotein convertase subtilisin/kexin type 9 (PCSK9) inhibitors for the treatment of metabolic disorders” (NOVARTIS AG, priority 2018, dated 2023).

Target: human PCSK9 (Homo sapiens, UniProt Q8NBP7)
Experiment: PCSK9 ligand binding assay (TR-FRET): interference with binding of human PCSK9 to human LDLR
Conditions: for IC50: Human PCSK9 Alexa Fluor 647 / Human LDLR extracellular domain-Europium Kryptate; for Max % inhibition: efficacy (Amax), 100% = 1 uM unlabeled human PCSK9, 0% = DMSO
How it was run: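 Read-out was TR-FRET ratio (665 nm over 615 nm, 330 nm excitation) between Alexa Fluor 647-human PCSK9 (16 nM added) and Europium Kryptate-human LDLR ectodomain (4 nM added). Compound and PCSK9 were mixed 30 min before LDLR, then incubated 2 h. Inhibition was normalised to DMSO and unlabelled-PCSK9 controls, giving IC50 and Amax.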

Chain of human PCSK9 (Q8NBP7 153-692): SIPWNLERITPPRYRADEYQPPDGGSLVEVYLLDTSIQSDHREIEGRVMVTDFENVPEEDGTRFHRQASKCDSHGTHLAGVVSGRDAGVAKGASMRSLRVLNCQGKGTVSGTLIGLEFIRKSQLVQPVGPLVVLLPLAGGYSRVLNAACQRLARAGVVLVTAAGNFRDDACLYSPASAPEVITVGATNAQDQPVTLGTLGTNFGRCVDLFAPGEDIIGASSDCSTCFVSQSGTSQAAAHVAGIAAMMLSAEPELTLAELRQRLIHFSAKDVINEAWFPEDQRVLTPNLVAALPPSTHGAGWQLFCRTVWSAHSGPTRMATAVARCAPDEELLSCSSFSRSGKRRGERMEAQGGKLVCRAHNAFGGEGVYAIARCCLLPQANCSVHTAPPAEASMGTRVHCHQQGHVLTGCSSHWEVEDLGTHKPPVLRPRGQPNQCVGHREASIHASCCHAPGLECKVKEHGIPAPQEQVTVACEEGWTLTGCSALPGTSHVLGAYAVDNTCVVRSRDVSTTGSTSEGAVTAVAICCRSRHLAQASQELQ
Chain of human PCSK9 (Q8NBP7 31-152 partner limits assumed): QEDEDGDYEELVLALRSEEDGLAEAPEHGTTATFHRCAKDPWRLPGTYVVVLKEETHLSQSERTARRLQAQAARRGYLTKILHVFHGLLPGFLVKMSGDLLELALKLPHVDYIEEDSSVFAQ

Row | IC50 [nM] | Max % inhibition [%] | SMILES
1 | 0.9 | 108.6 | CNCc1ncc(-c2ccc(Oc3cc(Cl)cc(F)c3CN3C(=O)C[C@@H](Cc4cccc(C)n4)C(=O)N4CCC[C@@](Cc5ccc(Cl)cc5)(C4)N(C)C(=O)[C@H](COC)NC(=O)[C@@H]3C)cc2)n1C [Compound 167, (3R,7S,10S,13R)-6-(4-chloro-2-fluoro-6-(4-(1-methyl-2-((methylamino)methyl)-1H-imidazol-5-yl)phenoxy)benzyl)-13-(4-chlorobenzyl)-10-(methoxymethyl)-7,12-dimethyl-3-((6-methylpyridin-2-yl)methyl)-1,6,9,12-tetraazabicyclo[11.3.1]heptadecane-2,5,8,11-tetraone]
2 | 0.9 | 109.6 | C[C@H]1C(=O)N[C@@H](CO)C(=O)N(C)[C@@]2(Cc3ccc(Cl)cc3)CCCN(C2)C(=O)[C@H](C2CC(F)(F)C2)CC(=O)N1Cc1c(F)cc(Cl)cc1Oc1ccc(-c2cnc(CN(C)C)n2C)cc1 [Compound 164, (3S, 7S, 10S, 13R)-6-(4-chloro-2-(4-(2-((dimethylamino)methyl)-1-methyl-1H-imidazol-5-yl)phenoxy)-6-fluorobenzyl)-13-(4-chlorobenzyl)-3-(3,3-difluorocyclobutyl)-10-(hydroxymethyl)-7,12-dimethyl-1,6,9,12-tetraazabicyclo[11.3.1]heptadecane-2,5,8,11-tetraone]
3 | 6.12 | 97.0 | COC[C@@H]1NC(=O)[C@H](CCF)N(Cc2ccc(Cl)cc2Oc2ccc(-c3cnc(CN(C)C)n3C)cc2)C(=O)C[C@@H](Cc2ccccc2)C(=O)N2CCC[C@@](Cc3ccc(Cl)cc3)(C2)NC1=O.Cl [Compound 105, (3R,7S,10S,13R)-3-benzyl-6-(4-chloro-2-(4-(2-((dimethylamino)methyl)-1-methyl-1H-imidazol-5-yl)phenoxy)benzyl)-13-(4-chlorobenzyl)-7-(2-fluoroethyl)-10-(methoxymethyl)-1,6,9,12-tetraazabicyclo[11.3.1]heptadecane-2,5,8,11-tetraone hydrochloride]
4 | 0.837 | 100.1 | COC[C@@H]1NC(=O)[C@H](C)N(Cc2ccc(Cl)cc2Oc2ccc(-c3cnc(CN4CC[C@H](N(C)C)C4)n3C)cc2)C(=O)C[C@@H](Cc2ccccc2)C(=O)N2CCC[C@@](Cc3ccc(Cl)cc3)(C2)NC1=O.Cl [Compound 72, (3R, 7S, 10S, 13R)-3-benzyl-6-(4-chloro-2-(4-(2-(((S)-3-(dimethylamino)pyrrolidin-1-yl)methyl)-1-methyl-1H-imidazol-5-yl)phenoxy)benzyl)-13-(4-chlorobenzyl)-10-(methoxymethyl)-7-methyl-1,6,9,12-tetraazabicyclo[11.3.1]heptadecane-2,5,8,11-tetraone]
5 | 0.72 | 110.6 | C[C@H]1C(=O)N[C@@H](CO)C(=O)N[C@@]2(Cc3ccc(Cl)cc3)CCCN(C2)C(=O)[C@H](CC(F)(F)F)CC(=O)N1Cc1ccc(Cl)cc1Oc1ccc(-c2cnc(CNC(C)(C)C)n2C)cc1 [Compound 147, (3S, 7S, 10S, 13R)-6-(2-(4-(2-((tert-butylamino)methyl)-1-methyl-1H-imidazol-5-yl)phenoxy)-4-chlorobenzyl)-13-(4-chlorobenzyl)-10-(hydroxymethyl)-7-methyl-3-(2,2,2-trifluoroethyl)-1,6,9,12-tetraazabicyclo[11.3.1]heptadecane-2,5,8,11-tetraone]
6 | 0.85 | 105.4 | CNCc1ncc(-c2ccc(Oc3cc(Cl)ccc3CN3C(=O)C[C@@H](Cc4ccccc4)C(=O)N4CCC[C@@](Cc5ccc(Cl)cc5)(C4)NC(=O)[C@H](CO)NC(=O)[C@@H]3C)cc2)n1C [Compound 150, (3R, 7S, 10S, 13R)-3-benzyl-6-(4-chloro-2-(4-(1-methyl-2-((methylamino)methyl)-1H-imidazol-5-yl)phenoxy)benzyl)-13-(4-chlorobenzyl)-10-(hydroxymethyl)-7-methyl-1,6,9, 12-tetraazabicyclo[11.3.1]heptadecane-2,5,8,11-tetraone]
7 | 0.978 | 107.7 | COC[C@@H]1NC(=O)[C@H](C)N(Cc2ccc(Cl)cc2Oc2ccc(-c3cnc(CN(C)C)n3C)nc2)C(=O)C[C@@H](Cc2ccccn2)C(=O)N2CCC[C@@](Cc3ccc(Cl)cc3)(C2)N(C)C1=O [Compound 94, (3R,7S,10S,13R)-6-(4-Chloro-2-((6-(2-((dimethylamino)methyl)-1-methyl-1H-imidazol-5-yl)pyridin-3-yl)oxy)benzyl)-13-(4-chlorobenzyl)-10-(methoxymethyl)-7,12-dimethyl-3-(pyridin-2-ylmethyl)-1,6,9,12-tetraazabicyclo[11.3.1]heptadecane-2,5,8,11-tetraone]
8 | 1.18 | 104.7 | COC[C@@H]1NC(=O)[C@H](C)N(Cc2c(F)cc(Cl)cc2Oc2ccc(-c3cnc(CN4CCC4)n3C)cc2)C(=O)C[C@@H](CC(F)(F)F)C(=O)N2CCC[C@@](Cc3ccc(Cl)cc3)(C2)N(C)C1=O [Compound 157, (3S, 7S, 10S, 13R)-6-(2-(4-(2-(azetidin-1-ylmethyl)-1-methyl-1H-imidazol-5-yl)phenoxy)-4-chloro-6-fluorobenzyl)-13-(4-chlorobenzyl)-10-(methoxymethyl)-7,12-dimethyl-3-(2,2,2-trifluoroethyl)-1,6,9,12-tetraazabicyclo[11.3.1]heptadecane-2,5,8,11-tetraone]
9 | 0.3 | 113.0 | COC[C@@H]1NC(=O)[C@H](C)N(Cc2c(F)cc(Cl)cc2Oc2ccc(-c3cnc(CN(C)C(C)(C)C)n3C)cc2)C(=O)C[C@@H](CC(F)(F)F)C(=O)N2CCC[C@@](Cc3ccc(Cl)cc3)(C2)NC1=O [Compound 137, (3S,7S,10S,13R)-6-(2-(4-(2-((tert-Butyl(methyl)amino)methyl)-1-methyl-1H-imidazol-5-yl)phenoxy)-4-chloro-6-fluorobenzyl)-13-(4-chlorobenzyl)-10-(methoxymethyl)-7-methyl-3-(2,2,2-trifluoroethyl)-1,6,9,12-tetraazabicyclo[11.3.1]heptadecane-2,5,8,11-tetraone]
10 | 1.41 | 101.7 | COC[C@@H]1NC(=O)[C@H](C)N(Cc2ncc(Cl)cc2Oc2ccc(-c3cnc(CN(C)C)n3C)nc2)C(=O)C[C@@H](Cc2ccccc2)C(=O)N2CCC[C@@](Cc3ccc(Cl)cc3)(C2)N(C)C1=O [Compound 85]
11 | 59.6 | 95.2 | CCc1ccc(CN2C(=O)C[C@@H]([C@@H]3CCc4ccccc43)C(=O)N(C)C[C@H](Cc3ccc(Cl)cc3)N(C)C(=O)[C@H](CO)NC(=O)[C@@H]2C)c(Oc2ccc(-c3cnc(CN(C)C)n3C)cc2)c1 [Compound 118, (2S, 5S, 8S, 12S)-8-(4-chlorobenzyl)-12-((S)-2,3-dihydro-1H-inden-1-yl)-1-(2-(4-(2-((dimethylamino)methyl)-1-methyl-1H-imidazol-5-yl)phenoxy)-4-ethylbenzyl)-5-(hydroxymethyl)-2,7,10-trimethyl-1,4,7,10-tetraazacyclotetradecane-3,6,11,14-tetraone]
12 | 9.32 | 104.6 | C[C@H]1C(=O)N[C@@H](CO)C(=O)N(C)[C@H](Cc2ccc(Cl)cc2)CN(C)C(=O)[C@H](Cc2ccccc2)CC(=O)N1Cc1ccc(Cl)cc1Oc1ccc(-c2cnc(CN3CCCC3)n2C)cc1.Cl [Compound 108, (2S, 5S, 8R, 12R)-12-benzyl-1-(4-chloro-2-(4-(1-methyl-2-(pyrrolidin-1-ylmethyl)-1H-imidazol-5-yl)phenoxy)benzyl)-8-(4-chlorobenzyl)-5-(hydroxymethyl)-2,7,10-trimethyl-1,4,7, 10-tetraazacyclotetradecane-3,6,11,14-tetraone]
13 | 0.61 | 112.5 | COC[C@@H]1NC(=O)[C@H](C)N(Cc2ccc(Cl)cc2Oc2ccc(-c3cnc(CN(C)C)n3C)nc2)C(=O)C[C@@H](Cc2ccccc2)C(=O)N2CCC[C@@](Cc3ccc(Cl)cc3)(C2)NC1=O [Compound 52, (3R, 7S, 10S, 13R)-3-benzyl-6-(4-chloro-2-((6-(2-((dimethylamino)methyl)-1-methyl-1H-imidazol-5-yl)pyridin-3-yl)oxy)benzyl)-13-(4-chlorobenzyl)-10-(methoxymethyl)-7-methyl-1,6,9,12-tetraazabicyclo[11.3.1]heptadecane-2,5,8,11-tetraone]
14 | 0.6 | 107.8 | C/C=C/C[C@@H]1CC(=O)N(Cc2ccc(Cl)cc2Oc2ccc(-c3cnc(CN(C)C)n3C)cc2)[C@@H](C)C(=O)N[C@@H](CO)C(=O)N[C@@]2(Cc3ccc(Cl)cc3)CCCN(C2)C1=O [Compound 40, (3R,7S,10S,13R)-3-((E)-but-2-en-1-yl)-6-(4-Chloro-2-(4-(2-((dimethylamino)methyl)-1-methyl-1H-imidazol-5-yl)phenoxy)benzyl)-13-(4-chlorobenzyl)-10-(hydroxymethyl)-7-methyl-1,6,9,12-tetraazabicyclo[11.3.1]heptadecane-2,5,8,11-tetraone]
15 | 0.187 | 117.5 | C[C@H]1C(=O)N[C@@H](CO)C(=O)N(C)[C@@]2(Cc3ccc(Cl)cc3)CCCN(C2)C(=O)[C@H](CC(F)(F)F)CC(=O)N1Cc1ccc(Cl)cc1Oc1ccc(-c2cnc(CN(C)C)n2C)cc1 [Compound 20, (3S, 7S, 10S, 13R)-6-(4-chloro-2-(4-(2-((dimethylamino)methyl)-1-methyl-1H-imidazol-5-yl)phenoxy)benzyl)-13-(4-chlorobenzyl)-10-(hydroxymethyl)-7,12-dimethyl-3-(2,2,2-trifluoroethyl)-1,6,9,12-tetraazabicyclo[11.3.1]heptadecane-2,5,8,11-tetraone]
16 | 21.6 | 102.5 | COC[C@@H]1NC(=O)[C@H](C)N(Cc2ccc(Cl)cc2Oc2ccc(-c3cnc(CN4CCCC4)n3C)cc2)C(=O)C[C@@H]([C@H]2CCc3ccccc32)C(=O)N(CCC(F)F)C[C@@H](Cc2ccc(Cl)cc2)N(C)C1=O.Cl [Compound 113]
